In PubChem BioAssay AID1259407 (Chemical Carcinogenesis Research Information System (CCRIS), 2018):
Activity calls are given as the source filed them. How the calls were made is not given here.

System: CCRIS mutagenicity, Ames/micronucleus/aberration tests
Test: CCRIS mutagenicity studies
[1] = Test System: AMES SALMONELLA TYPHIMURIUM, Strain/Indicator: TA98, Metabolic Activation: NONE, Method: PREINCUBATION
[2] = Test System: AMES SALMONELLA TYPHIMURIUM, Strain/Indicator: TA100, Metabolic Activation: NONE, Method: PREINCUBATION
[3] = Test System: AMES SALMONELLA TYPHIMURIUM, Strain/Indicator: TA1535, Metabolic Activation: NONE, Method: STANDARD PLATE
[4] = Test System: AMES SALMONELLA TYPHIMURIUM, Strain/Indicator: TA98, Metabolic Activation: NONE, Method: STANDARD PLATE
[5] = Test System: AMES SALMONELLA TYPHIMURIUM, Strain/Indicator: TA100, Metabolic Activation: NONE, Method: STANDARD PLATE
[6] = Test System: AMES SALMONELLA TYPHIMURIUM, Strain/Indicator: TA98, Metabolic Activation: RAT, LIVER, S-9, AROCLOR 1254, Method: STANDARD PLATE
[7] = Test System: AMES SALMONELLA TYPHIMURIUM, Strain/Indicator: TA100, Metabolic Activation: RAT, LIVER, S-9, AROCLOR 1254, Method: STANDARD PLATE
[8] = Test System: AMES SALMONELLA TYPHIMURIUM, Strain/Indicator: TA1535, Metabolic Activation: RAT, LIVER, S-9, AROCLOR 1254, Method: STANDARD PLATE
[9] = Test System: AMES SALMONELLA TYPHIMURIUM, Strain/Indicator: TA1537, Metabolic Activation: NONE, Method: STANDARD PLATE
[10] = Test System: AMES SALMONELLA TYPHIMURIUM, Strain/Indicator: TA1537, Metabolic Activation: RAT, LIVER, S-9, AROCLOR 1254, Method: STANDARD PLATE
[11] = Test System: AMES SALMONELLA TYPHIMURIUM, Strain/Indicator: TA1538, Metabolic Activation: NONE, Method: STANDARD PLATE
[12] = Test System: AMES SALMONELLA TYPHIMURIUM, Strain/Indicator: TA1538, Metabolic Activation: RAT, LIVER, S-9, AROCLOR 1254, Method: STANDARD PLATE

Measured: mutagenic call

NCCCCCCCCCCCC(=O)O
inactive: [1] inactive; negative | Test System: AMES SALMONELLA TYPHIMURIUM, Strain/Indicator: TA98, Metabolic Activation: RAT LIVER S-9, PHENOBARBITAL AND BETA-NAPHTHOFLAVONE, Method: PREINCUBATION inactive; negative | [2] inactive; negative | Test System: AMES SALMONELLA TYPHIMURIUM, Strain/Indicator: TA100, Metabolic Activation: RAT LIVER S-9, PHENOBARBITAL AND BETA-NAPHTHOFLAVONE, Method: PREINCUBATION inactive; negative | Test System: AMES SALMONELLA TYPHIMURIUM, Strain/Indicator: TA1535, Metabolic Activation: NONE, Method: PREINCUBATION inactive; negative | Test System: AMES SALMONELLA TYPHIMURIUM, Strain/Indicator: TA1535, Metabolic Activation: RAT LIVER S-9, PHENOBARBITAL AND BETA-NAPHTHOFLAVONE, Method: PREINCUBATION inactive; negative | Test System: AMES SALMONELLA TYPHIMURIUM, Strain/Indicator: TA1537, Metabolic Activation: NONE, Method: PREINCUBATION inactive; negative | Test System: AMES SALMONELLA TYPHIMURIUM, Strain/Indicator: TA1537, Metabolic Activation: RAT LIVER S-9, PHENOBARBITAL AND BETA-NAPHTHOFLAVONE, Method: PREINCUBATION inactive; negative | Test System: E.COLI, Strain/Indicator: WP2UVRA/PKM101, Metabolic Activation: NONE, Method: PREINCUBATION inactive; negative | Test System: E.COLI, Strain/Indicator: WP2UVRA/PKM101, Metabolic Activation: RAT LIVER S-9, PHENOBARBITAL AND BETA-NAPHTHOFLAVONE, Method: PREINCUBATION inactive; negative

CCOP(=S)(OCC)SCCSCC
active: End Point: In vivo micronucleus, Test System: Micronucleated polychromatic erythrocytes, Species: Mouse, Strain/Sex: Hsd/Win: NMRI/Male and female, Route: Intraperitoneal active; positive at 24 and 48 hr compared with the concurrent control, but equivocal com | [3] active; positive | Test System: AMES SALMONELLA TYPHIMURIUM, Strain/Indicator: TA1535, Metabolic Activation: S-9 MIX, Method: STANDARD PLATE active; positive | Test System: UDS HUMAN FIBROBLASTS, Strain/Indicator: THY INCORP (NON-S-PHASE), Metabolic Activation: NONE, Method: LIQUID SCINTILLATION COUNTING active; positive
inactive: Test System: E. coli polA test, Strain/Indicator: (K12)p3478/W3110, Metabolic Activation: None, Method: Plate test with 24 hr exposure inactive; negative | Test System: E. coli polA test, Strain/Indicator: (K12)p3478/W3110, Metabolic Activation: S-9, Method: Plate test with 24 hr exposure inactive; negative

CCCCCCCCCC(=O)N=c1sn(C(=O)CCCCCCCCC)c2ccc([N+](=O)[O-])cc12
active: Test System: AMES SALMONELLA TYPHIMURIUM, Strain/Indicator: TA100, Metabolic Activation: S-9, Method: STANDARD PLATE active; positive

CNC(=O)N(O)C(C)=O
active: [4] active; positive | Test System: AMES SALMONELLA TYPHIMURIUM, Strain/Indicator: TA98, Metabolic Activation: RAT, LIVER, S-9, Method: STANDARD PLATE active; positive | [5] active; positive

OC1(c2ccc(Cl)cc2)c2ccccc2C2=NCCN21 (centres undefined)
active: Test System: CHINESE HAMSTER V-79, Strain/Indicator: V-79/6-THIOGUANINE, Metabolic Activation: NONE active; positive | Test System: CHINESE HAMSTER V-79, Strain/Indicator: V-79/6-THIOGUANINE, Metabolic Activation: S-9 active; positive

ClCc1ccccc1CCl
inactive: [4] inactive; negative

CN1CCN(C)CC1
inactive: [1] inactive; negative | Test System: AMES SALMONELLA TYPHIMURIUM, Strain/Indicator: TA98, Metabolic Activation: RAT, LIVER, S-9, PCB, Method: PREINCUBATION inactive; negative | [2] inactive; negative | Test System: AMES SALMONELLA TYPHIMURIUM, Strain/Indicator: TA100, Metabolic Activation: RAT, LIVER, S-9, PCB, Method: PREINCUBATION inactive; negative

O=C(NC(=O)c1c(F)cccc1F)Nc1cc(Cl)c(Oc2ncc(C(F)(F)F)cc2Cl)c(Cl)c1
inactive: [4] inactive; negative | [6] inactive; negative | [5] inactive; negative | [7] inactive; negative | [3] inactive; negative | [8] inactive; negative | [9] inactive; negative | [10] inactive; negative | [11] inactive; negative | [12] inactive; negative

CCOC(=O)C(Cl)C(C)=O (centres undefined)
inactive: Test System: AMES SALMONELLA TYPHIMURIUM, Strain/Indicator: TA98, Metabolic Activation: HAMSTER, LIVER, S-9, AROCLOR 1254, Method: STANDARD PLATE inactive; negative | [4] inactive; negative | [6] inactive; negative | Test System: AMES SALMONELLA TYPHIMURIUM, Strain/Indicator: TA100, Metabolic Activation: HAMSTER, LIVER, S-9, AROCLOR 1254, Method: STANDARD PLATE inactive; negative | [5] inactive; negative | [7] inactive; negative | Test System: AMES SALMONELLA TYPHIMURIUM, Strain/Indicator: TA1535, Metabolic Activation: HAMSTER, LIVER, S-9, AROCLOR 1254, Method: STANDARD PLATE inactive; negative | [3] inactive; negative | [8] inactive; negative | Test System: AMES SALMONELLA TYPHIMURIUM, Strain/Indicator: TA1537, Metabolic Activation: HAMSTER, LIVER, S-9, AROCLOR 1254, Method: STANDARD PLATE inactive; negative | [9] inactive; negative | [10] inactive; negative | Test System: AMES SALMONELLA TYPHIMURIUM, Strain/Indicator: TA1538, Metabolic Activation: HAMSTER, LIVER, S-9, AROCLOR 1254, Method: STANDARD PLATE inactive; negative | [11] inactive; negative | [12] inactive; negative | Test System: MOUSE LYMPHOMA, Strain/Indicator: L5178Y (TK+/TK-), Metabolic Activation: NONE, Method: SUSPENSION/PLATE inactive; positive. reevaluation of results: negative
active: Test System: MOUSE LYMPHOMA, Strain/Indicator: L5178Y (TK+/TK-), Metabolic Activation: RAT, LIVER, S-9, AROCLOR 1254, Method: SUSPENSION/PLATE active; positive. reevaluation of results: inconclusive

CC(C)C(=O)N(O)c1ccc(Cl)cc1
inactive: [4] inactive; negative | [5] inactive; negative | [7] inactive; negative
active: [6] active; positive

N=c1c2ncn(C(c3ccccc3)(c3ccccc3)c3ccccc3)c2ncn1O
active: [6] active; positive
inactive: Test System: AMES SALMONELLA TYPHIMURIUM, Strain/Indicator: TA97, Metabolic Activation: NONE, Method: STANDARD PLATE inactive; negative | Test System: AMES SALMONELLA TYPHIMURIUM, Strain/Indicator: TA97, Metabolic Activation: RAT, LIVER, S-9, AROCLOR 1254, Method: STANDARD PLATE inactive; negative | [4] inactive; negative | [5] inactive; negative | [7] inactive; negative
